By IC50 is commonly meant the concentration that gives 50% inhibition.

The values that follow come from patent publication US9809532B2, “Uses of histone acetyltransferase activators” (THE TRUSTEES OF COLUMBIA UNIVERSITY IN THE CITY OF NEW YORK, priority 2011, dated 2017).

The target of data set [1] is T1, Sirtuin 1 (Homo sapiens, UniProt Q96EB6).
T1 sequence (Q96EB6 1-747): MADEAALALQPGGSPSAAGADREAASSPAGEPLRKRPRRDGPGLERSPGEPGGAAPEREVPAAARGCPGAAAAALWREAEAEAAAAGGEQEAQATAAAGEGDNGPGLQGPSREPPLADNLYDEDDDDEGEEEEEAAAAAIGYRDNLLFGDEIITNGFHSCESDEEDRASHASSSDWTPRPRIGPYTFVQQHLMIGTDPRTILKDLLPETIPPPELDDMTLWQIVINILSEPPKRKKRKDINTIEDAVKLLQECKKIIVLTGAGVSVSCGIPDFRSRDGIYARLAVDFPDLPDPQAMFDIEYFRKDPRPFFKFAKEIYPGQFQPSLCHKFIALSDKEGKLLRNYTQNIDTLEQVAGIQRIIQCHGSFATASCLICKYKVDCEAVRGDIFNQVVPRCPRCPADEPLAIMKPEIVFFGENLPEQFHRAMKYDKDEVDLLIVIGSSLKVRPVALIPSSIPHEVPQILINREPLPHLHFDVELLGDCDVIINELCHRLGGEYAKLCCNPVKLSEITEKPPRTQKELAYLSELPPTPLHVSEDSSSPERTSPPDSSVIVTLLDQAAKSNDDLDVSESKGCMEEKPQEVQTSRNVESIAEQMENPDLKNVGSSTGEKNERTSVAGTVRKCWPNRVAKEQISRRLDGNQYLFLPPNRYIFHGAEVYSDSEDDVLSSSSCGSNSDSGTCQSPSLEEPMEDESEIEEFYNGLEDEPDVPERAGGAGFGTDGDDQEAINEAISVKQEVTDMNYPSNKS
The experiment in a line: Sirtuin 1 activity assay (fluorescence).

Data set [2] addresses T2, Sirtuin 2 (Homo sapiens, UniProt Q8IXJ6).
T2 sequence (Q8IXJ6 1-389): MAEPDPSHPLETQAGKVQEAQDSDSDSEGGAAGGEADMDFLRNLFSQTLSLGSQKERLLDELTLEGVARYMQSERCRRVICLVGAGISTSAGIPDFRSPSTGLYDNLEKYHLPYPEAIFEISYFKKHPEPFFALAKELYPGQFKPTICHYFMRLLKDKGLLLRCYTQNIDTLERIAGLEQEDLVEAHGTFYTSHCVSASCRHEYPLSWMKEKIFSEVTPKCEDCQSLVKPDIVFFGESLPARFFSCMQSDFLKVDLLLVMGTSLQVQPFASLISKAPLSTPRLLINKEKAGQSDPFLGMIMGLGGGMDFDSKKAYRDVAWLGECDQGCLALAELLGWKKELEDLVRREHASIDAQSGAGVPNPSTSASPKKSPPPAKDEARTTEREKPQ
The experiment in a line: Sirtuin 2 activity assay (fluorescence). To be noted: Sirtuin 2.

For data set [3] the following is noted: precipitated as soon as put in H2O; cited from earlier work.

Turning to `O=C(CCCCCCC(=O)Nc1ccccc1)NO` [SAHA, reference compound], the IC50 in data set [1] and in data set [2] was more than 10 µM throughout.
For the molecule `CCOc1ccccc1C(=O)Nc1ccc(Cl)c(C(F)(F)F)c1` [N-(4-chloro-3-trifluoromethyl-phenyl)-2-ethoxy-benzamide], in data set [3], the solubility in water result was “very poorly solubile in water”.
